Experimental data taken from patent publication US4012284A (Societa' Farmaceutici Italia, S.p.A., priority 1962, dated 1977).
Where a name gives a salt, the structure may show the parent alone.

Test: Solubility
Type: physicochemical

| Compound | solubility (in benzene, aliphatic esters, ethyl ether) | solubility (in butanol, acetone) | solubility (in methanol, ethanol, chloroform) | solubility (in petroleum ether) | solubility in water | solubility (in chloroform, acetone, benzol and non-polar solvents) | solubility (in methanol, aqueous alcohols) | solubility (in lower aliphatic alcohols, halogenated hydrocarbon (chloroform), ketones (acetone, methylethylketone)) |
| --- | --- | --- | --- | --- | --- | --- | --- | --- |
| COc1cccc2c1C(=O)c1c(O)c3c(c(O)c1C2=O)C[C@@](O)(C(C)=O)C[C@@H]3O [Daunomycinone, daunomycinone] | scarcely soluble | less soluble | soluble | insoluble | insoluble |  |  |  |
| COc1cccc2c1C(=O)c1c(O)c3c(c(O)c1C2=O)C[C@@](O)(C(C)=O)C[C@@H]3O[C@H]1C[C@H](N)[C@H](O)[C@H](C)O1 [F.I. 1762 hydrochloride] |  |  |  |  | soluble | insoluble | soluble |  |
| COc1cccc2c1C(=O)c1c(O)c3c(c(O)c1C2=O)C[C@@](O)(C(C)=O)C[C@@H]3O[C@H]1C[C@H](N)[C@H](O)[C@H](C)O1 [F.I. 1762 picrate] |  |  |  |  |  |  |  | soluble |
